# Test system: VR1 receptor (293 cells expressing capsaicin-insensitive VR1 receptor variants)
# Assay: High throughput screening of VR1 antagonists using a calcium imaging assay (Fura2, pH 5.1 stimulus);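 also: Fura2 ratiometric fluorescence read every 4 s over 3 min, response taken as peak ratio minus baseline before pre-treatment, compound pre-treatment preceding acid challenge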
# Details: 1 uM compound; inhibition of calcium ion influx
# From the text: A dual wavelength ratiometric dye, Fura2, was used as an indicator of relative levels of calcium ions in a 96 well format using a bench top scanning fluorometer with integrated fluidics and temperature control (Flex Station, Molecular Devices).
# A dual wavelength ratiometric dye, Fura2, was used as an indicator of relative levels of [Ca2+] in a 96 well format using a bench top scanning fluorometer with integrated fluidics and temperature control (Flex Station, Molecular Devices).
# 293 cells were grown on PDL coated 96-well black-walled plates, in the presence of a DMEM medium containing 5% Penstrep, 5% Glutamax, 200 ug/mL Hygromycin, 5 μg/mL Blasticide and 10% heat inactivated FBS. Prior to assay, the cells were loaded with 5 μg/mL Fura2 in normal saline solution at 37° C. for 40 minutes. Cells were then washed with normal saline to remove the dye.
# The assay consists of two stages; a pre-treatment phase followed by a treatment phase.
# 50 μl of a compound solution was added to the cells (Pre-treatment). Immediately following, 50 μl of the test compound in a saline solution at pH 5.1 was added. […] Changes in wavelength measurements were made throughout the course of the experiment in 4 second intervals over a period of 3 minutes. Responses were measured as peak fluorescence ratio after test compound addition minus baseline fluorescence ratio prior to pre-treatment and were calculated using SoftMaxPro softwareData were expressed as percentage inhibition calculated using Excel as follows:
row,SMILES,% Inhibition @ 1 uM
1,O=C(Nc1ccc(Cl)cc1Cl)c1ccc(-c2ncccc2Cl)cc1 [Compound 1033],+ (compound exhibited 0-25% inhibition of calcium ion influx induced by capsaicin stimulation)
2,O=C(Nc1ccc(C(F)(F)F)cc1)c1ccc(-c2ncccc2Cl)cc1 [Compound 1035],++++ (compound exhibited 75% or greater inhibition of calcium ion influx induced by capsaicin stimulation)
3,CN(C)c1cccc(NC(=O)c2ccc(-c3ncccc3Cl)cc2F)c1 [Compound 1086],+ (compound exhibited 0-25% inhibition of calcium ion influx induced by capsaicin stimulation)
4,COc1ccccc1NC(=O)c1ccc(-c2ncccc2Cl)cc1 [Compound 1030],++++ (compound exhibited 75% or greater inhibition of calcium ion influx induced by capsaicin stimulation)
5,O=C(Nc1ccc2ncccc2c1)c1ccc(-c2ncccc2Cl)cc1 [Compound 1071],+ (compound exhibited 0-25% inhibition of calcium ion influx induced by capsaicin stimulation)
6,CN1CCCc2ccc(NC(=O)c3ccc(-c4ncccc4Cl)cc3)cc21 [Compound 1304],+ (compound exhibited 0-25% inhibition of calcium ion influx induced by capsaicin stimulation)
7,Cc1cc(C)nc(NC(=O)c2ccc(-c3ncccc3Cl)cc2)c1 [Compound 1054],+ (compound exhibited 0-25% inhibition of calcium ion influx induced by capsaicin stimulation)
8,CCCc1ccccc1NC(=O)c1ccc(-c2ncccc2Cl)c(OC)c1 [Compound 1212],++ (compound exhibited 25-50% inhibition of calcium ion influx induced by capsaicin stimulation)
9,COc1cc(C(=O)Nc2ccc3ccccc3c2)ccc1-c1ncccc1Cl [Compound 1253],++++ (compound exhibited 75% or greater inhibition of calcium ion influx induced by capsaicin stimulation)
10,O=C(Nc1ccc2c(c1)OCO2)c1ccc(-c2ncccc2Cl)cc1 [Compound 1051],+ (compound exhibited 0-25% inhibition of calcium ion influx induced by capsaicin stimulation)
11,COc1cc(C(=O)Nc2ccc(Cl)c(C(F)(F)F)c2)ccc1-c1ncccc1Cl [Compound 1231],+ (compound exhibited 0-25% inhibition of calcium ion influx induced by capsaicin stimulation)
12,CC(C)(C)c1ccc(NC(=O)c2ccc(-c3ncccc3Cl)c(F)c2)cc1 [Compound 1142],++++ (compound exhibited 75% or greater inhibition of calcium ion influx induced by capsaicin stimulation)
13,Cc1cccnc1NC(=O)c1ccc(-c2ncccc2Cl)cc1F [Compound 1112],+ (compound exhibited 0-25% inhibition of calcium ion influx induced by capsaicin stimulation)
14,CCN(CC)c1ccc(NC(=O)c2ccc(-c3ncccc3Cl)cc2)cc1 [Compound 1061],++++ (compound exhibited 75% or greater inhibition of calcium ion influx induced by capsaicin stimulation)
15,COc1cc(C(=O)Nc2cccc(Cl)c2)ccc1-c1ncccc1Cl [Compound 1210],+ (compound exhibited 0-25% inhibition of calcium ion influx induced by capsaicin stimulation)
16,CCC1c2ccccc2-c2cc(NC(=O)c3ccc(-c4ncccc4Cl)cc3)ccc21 (centres unmarked) [Compound 1072],++ (compound exhibited 25-50% inhibition of calcium ion influx induced by capsaicin stimulation)
17,COc1cc(C(=O)Nc2ccc(C)cc2C)ccc1-c1ncccc1Cl [Compound 1223],++++ (compound exhibited 75% or greater inhibition of calcium ion influx induced by capsaicin stimulation)
18,N#Cc1cccc(NC(=O)c2ccc(-c3ncccc3Cl)c(F)c2)c1 [Compound 1141],++++ (compound exhibited 75% or greater inhibition of calcium ion influx induced by capsaicin stimulation)
19,Cc1cc(C)nc(NC(=O)c2ccc(-c3ncccc3Cl)cn2)c1 [Compound 1329],+ (compound exhibited 0-25% inhibition of calcium ion influx induced by capsaicin stimulation)
20,COc1ccc(NC(=O)c2ccc(-c3ncccc3Cl)c(F)c2)cc1Cl [Compound 1151],++++ (compound exhibited 75% or greater inhibition of calcium ion influx induced by capsaicin stimulation)
21,O=C(Nc1ccnc(Cl)c1)c1ccc(-c2ncccc2Cl)cc1 [Compound 1050],++++ (compound exhibited 75% or greater inhibition of calcium ion influx induced by capsaicin stimulation)
22,O=C(Nc1ccc2cn[nH]c2c1)c1ccc(-c2ncccc2Cl)c(F)c1 [Compound 1189],+++ (compound exhibited 50-75% inhibition of calcium ion influx induced by capsaicin stimulation)
23,O=C(Nc1ccc2ccccc2c1)c1ccc(-c2ncccc2Cl)c(F)c1 [Compound 1177],++++ (compound exhibited 75% or greater inhibition of calcium ion influx induced by capsaicin stimulation)
24,COc1cc(C(=O)Nc2ccc(N3CCOCC3)c(Cl)c2)ccc1-c1ncccc1Cl [Compound 1276],+ (compound exhibited 0-25% inhibition of calcium ion influx induced by capsaicin stimulation)
25,O=C(Nc1ccc2ncccc2c1)c1ccc(-c2ncccc2Cl)cn1 [Compound 1344],+ (compound exhibited 0-25% inhibition of calcium ion influx induced by capsaicin stimulation)

row,SMILES,% Inhibition @ 1 uM
1,CN(C)c1cccc(NC(=O)c2ccc(-c3ncccc3Cl)cc2)c1 [Compound 1060],++++ (compound exhibited 75% or greater inhibition of calcium ion influx induced by capsaicin stimulation)
2,COc1cc(NC(=O)c2ccc(-c3ncccc3Cl)cn2)cc(C(F)(F)F)c1 [Compound 1328],+ (compound exhibited 0-25% inhibition of calcium ion influx induced by capsaicin stimulation)
3,CC(C)(C)NC(=O)c1ccc(-c2ncccc2Cl)c(F)c1 [Compound 1127],+ (compound exhibited 0-25% inhibition of calcium ion influx induced by capsaicin stimulation)
4,O=C(Nc1ccc(F)c(F)c1)c1ccc(-c2ncccc2Cl)cc1 [Compound 1296],+ (compound exhibited 0-25% inhibition of calcium ion influx induced by capsaicin stimulation)
5,COc1ccc(NC(=O)c2ccc(-c3ncccc3Cl)c(F)c2)cn1 [Compound 1170],++ (compound exhibited 25-50% inhibition of calcium ion influx induced by capsaicin stimulation)
6,COc1cc(C(=O)Nc2cc(C)ccn2)ccc1-c1ncccc1Cl [Compound 1240],++++ (compound exhibited 75% or greater inhibition of calcium ion influx induced by capsaicin stimulation)
7,CCCc1ccccc1NC(=O)c1ccc(-c2ncccc2Cl)c(F)c1 [Compound 1135],+ (compound exhibited 0-25% inhibition of calcium ion influx induced by capsaicin stimulation)
8,COc1cc(C(=O)Nc2cccnc2)ccc1-c1ncccc1Cl [Compound 1236],+ (compound exhibited 0-25% inhibition of calcium ion influx induced by capsaicin stimulation)
9,N#Cc1ccccc1NC(=O)c1ccc(-c2ncccc2Cl)cn1 [Compound 1309],+ (compound exhibited 0-25% inhibition of calcium ion influx induced by capsaicin stimulation)
10,COc1cc(C(=O)Nc2ccncc2)ccc1-c1ncccc1Cl [Compound 1235],++++ (compound exhibited 75% or greater inhibition of calcium ion influx induced by capsaicin stimulation)
11,O=C(Nc1ccncc1)c1ccc(-c2ncccc2Cl)cn1 [Compound 1330],+++ (compound exhibited 50-75% inhibition of calcium ion influx induced by capsaicin stimulation)
12,O=C(O)c1cccc(NC(=O)c2ccc(-c3ncccc3Cl)c(F)c2)c1 [Compound 1182],+ (compound exhibited 0-25% inhibition of calcium ion influx induced by capsaicin stimulation)
13,COc1cc(C(=O)Nc2cc(C)cc(C)n2)ccc1-c1ncccc1Cl [Compound 1234],+ (compound exhibited 0-25% inhibition of calcium ion influx induced by capsaicin stimulation)
14,CCn1c2ccccc2c2cc(NC(=O)c3ccc(-c4ncccc4Cl)cn3)ccc21 [Compound 1345],++++ (compound exhibited 75% or greater inhibition of calcium ion influx induced by capsaicin stimulation)
15,O=C(Nc1ccc2cn[nH]c2c1)c1ccc(-c2ncccc2Cl)cn1 [Compound 1357],++++ (compound exhibited 75% or greater inhibition of calcium ion influx induced by capsaicin stimulation)
16,CCCCc1ccc(NC(=O)c2ccc(-c3ncccc3Cl)c(OC)c2)cc1 [Compound 1221],++ (compound exhibited 25-50% inhibition of calcium ion influx induced by capsaicin stimulation)
17,Cc1cc(NC(=O)c2ccc(-c3ncccc3Cl)cc2)nc(C)n1 [Compound 1052],+ (compound exhibited 0-25% inhibition of calcium ion influx induced by capsaicin stimulation)
18,O=C(Nc1ccc(OC(F)(F)F)cc1)c1ccc(-c2ncccc2Cl)cn1 [Compound 1360],+ (compound exhibited 0-25% inhibition of calcium ion influx induced by capsaicin stimulation)
19,COc1cc(C(=O)Nc2ccc3ncccc3c2)ccc1-c1ncccc1Cl [Compound 1250],++++ (compound exhibited 75% or greater inhibition of calcium ion influx induced by capsaicin stimulation)
20,COc1cc(NC(=O)c2ccc(-c3ncccc3Cl)cc2)cc(C(F)(F)F)c1 [Compound 1045],++ (compound exhibited 25-50% inhibition of calcium ion influx induced by capsaicin stimulation)
21,CN1CCCc2ccc(NC(=O)c3ccc(-c4ncccc4Cl)c(F)c3)cc21 [Compound 1203],+ (compound exhibited 0-25% inhibition of calcium ion influx induced by capsaicin stimulation)
22,CCOc1ccc(NC(=O)c2ccc(-c3ncccc3Cl)c(OC)c2)cc1 [Compound 1273],+ (compound exhibited 0-25% inhibition of calcium ion influx induced by capsaicin stimulation)
23,O=C(Nc1cccc(OC(F)(F)F)c1)c1ccc(-c2ncccc2Cl)cn1 [Compound 1361],++ (compound exhibited 25-50% inhibition of calcium ion influx induced by capsaicin stimulation)
24,O=C(Nc1ccncc1)c1ccc(-c2ncccc2Cl)c(F)c1 [Compound 1157],++++ (compound exhibited 75% or greater inhibition of calcium ion influx induced by capsaicin stimulation)
25,O=C(Nc1cccc(Cl)c1Cl)c1ccc(-c2ncccc2Cl)c(F)c1 [Compound 1139],++++ (compound exhibited 75% or greater inhibition of calcium ion influx induced by capsaicin stimulation)

# — patent US7338950B2, “Amide compounds as ion channel ligands and uses thereof” (Renovis, Inc., priority 2003, dated 2008)
